Reference: US12570606B2, “Myeloperoxidase imaging agents” (The General Hospital Corporation, priority 2016, dated 2026)

Tests used:
[1] = Blood brain barrier assay, PET brain uptake; assay type: in vivo, Female C57Bl/6J mice
Description: Female C57Bl/6J mice were injected intravenously with either 3′-deoxy-3′-^18F-fluorothymidine (FLT) or Compound 9 (300-600 μCi). The mice were imaged 2 hours after the PET tracers were injected.

[2] = target: T1, MPO (Mus musculus, UniProt P11247); experiment: CFA paw inflammation PET imaging and treatment by MPO inhibitor PF-1355; assay type: in vivo; set-up: from tissue; host or cells: inflamed forepaw of living mice (CFA); settings: forepaw, 24 h after CFA emulsion, scan 2 h after tracer
T1 sequence (P11247 139-718): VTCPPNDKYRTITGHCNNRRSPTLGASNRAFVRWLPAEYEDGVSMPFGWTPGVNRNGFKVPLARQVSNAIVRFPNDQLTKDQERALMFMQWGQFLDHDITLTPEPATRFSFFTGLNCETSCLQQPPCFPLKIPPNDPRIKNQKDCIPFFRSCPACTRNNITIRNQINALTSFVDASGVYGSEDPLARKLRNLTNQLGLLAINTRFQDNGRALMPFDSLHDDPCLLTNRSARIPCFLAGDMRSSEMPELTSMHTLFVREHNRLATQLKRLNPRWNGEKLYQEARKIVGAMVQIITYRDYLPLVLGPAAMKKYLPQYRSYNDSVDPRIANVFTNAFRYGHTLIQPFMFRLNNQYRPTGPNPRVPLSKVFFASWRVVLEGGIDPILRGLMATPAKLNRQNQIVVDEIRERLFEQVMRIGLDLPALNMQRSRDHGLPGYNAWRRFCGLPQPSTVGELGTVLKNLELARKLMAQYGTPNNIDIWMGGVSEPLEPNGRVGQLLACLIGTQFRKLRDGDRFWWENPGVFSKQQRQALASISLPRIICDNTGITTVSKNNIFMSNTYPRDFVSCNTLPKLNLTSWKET
Description: Each pair contained one treated and one untreated, number of pairs, n=3. The 1/1 emulsion of CFA/PBS (40 μL) was injected subcutaneously on the dorsal side of one forepaw under isoflurane anesthesia, and PBS (40 μL) was injected on the other forepaw as control. After 1 h, the treated group was given PF-1355 (50 mg/kg) by gavage, then treated every 6 h for another 3 times, and the control group was treated with vehicle (10 mL/kg) accordingly. After 24 h, 300-600 uCi of Compound 9 was injected intravenously. After another 2 h, each pair of the mice was scanned side by side.
After validating the efficacy of the MPO Compound 9 in matrigel experiments, the specificity of the agent in inflammation was investigated. Complete Freund's Adjuvant (CFA) or its emulsion can cause inflammation when injected subcutaneously to the animal. The CFA emulsion was injected to one dorsal side of the forepaw of the mouse and the other side was injected with PBS. After 24 h, Compound 9 was injected intravenously and scanned 2 h after injection. […] To further verify the specificity of the MPO Compound 9, the mice were treated with MPO inhibitor PF-1355 1 h after CFA emulsion injection and continuously every 6 h afterwards for 4 times before injecting the Compound 9. The control group was treated with vehicle after CFA injection. Then each pair of the mice from treated and untreated groups were scanned.

[3] = Dynamic PET study of Compound 9 over 3 hours; assay type: in vivo, mouse; settings: dynamic study over 3 hours

O=C(Cc1c[nH]c2ccc(O)cc12)NC(Cc1c[nH]c2ccc(O)cc12)C(=O)NCCOCCOCC[18F] (stereo not shown) [Compound 9]
Uptake in the brain (SUV, FIG. 12) ([1]; 300-600 μCi i.v., imaged 2 hours after injection): higher uptake in the brain compared to FLT | Crossing of the blood brain barrier ([1]; intact BBB): can cross intact BBB | PET signal of CFA side versus vehicle (PBS) injected side [2]: 4 fold | Blood-brain barrier crossing (brain data) [3]: can cross the blood-brain barrier
